# According to patent US20040057908A1, “Oral compositions and use thereof” (priority 2003, published 2004):
# Assays:
# [1] = tested on: Mutans Streptococci Strains; assay: MIC and MBC, broth dilution, all strains stated together; type: cell-based, S. mutans (GS-5 and UA159) and S. sobrinus 6715; settings: Streptococcus mutans; all strains tested (S. mutans GS-5, UA159, S. sobrinus 6715); read-out: MIC
# Description: The minimum inhibitory concentration (MIC) and minimum bactericidal concentration (MBC) were determined for each test compound according to the National Committee for Clinical Laboratory Standards guidelines (Tentative standard M26-T, 1992; NCCLS Publication No. M7-A5, 2000) and Koo et al. (2000b). The broth microdilution and macrodilution methods (in TSB) were used for the antibacterial tests. The starting inoculum was 5×10^5 CFU/ml and the concentrations of test compounds ranged from 15.6 to 500 μM (two-fold dilutions). The MICs and MBCs were determined in quadruplicate in at least 3 different experiments.
# [2] = tested on: T1, streptococcal GTFs; assay: GTF activity adsorbed onto sHA surface, all GTFs stated together; type: biochemical, Streptococcus mutans, S. sanguinis; settings: 1.33 mM
# T1 construct: Streptococcus milleri KSB8, which harbors the gtfB gene from S. mutans GS-5 (for GTF B production)
# Description: (§1) Glucosyltransferase activity was measured by the incorporation of [^14C-glucose] from labeled sucrose (NEN Research Products, Boston, Mass.) into glucans (Germaine et al., 1974; Venkitaraman et al., 1995). The GTF enzyme added to each sample for all assays was equivalent to the amount required to incorporate 1.0-1.5 μmol of glucose over the four hours reaction (1.0-1.5 units).
# For surface assays, the GTFs were adsorbed to hydroxyapatite beads coated with clarified whole saliva (free of GTF activity), as detailed elsewhere (Koo et al., 2000c; Schilling and Bowen, 1988, Venkitaraman et al., 1995). The saliva-coated hydroxyapatite (sHA) beads were exposed to sufficient enzyme to saturate the surface as determined experimentally. Following the adsorption of the enzyme, the beads were washed 3 times with buffer to remove the loosely bound material and exposed to 300 μl of the two-fold dilution series of test compounds (or control) for 30 min. at the same concentrations described above. The beads were washed and exposed to 300 μl [^14C-glucose]-sucrose substrate (100.0 mmol/l sucrose, final concentration). The radiolabeled glucan formed was collected and quantified by scintillation counting (Germaine et al., 1974; Venkitaraman et al., 1995). All the solution and surface assays were done in quadruplicate in at least 3 different experiments. […]
# [3] = tested on: biofilms; assay: Formation of biofilms (continued research); type: cell-based
# [4] = target: T2, GTF D (Streptococcus mutans serotype c, UniProt P49331); assay: GTF activity adsorbed onto sHA surface, GTF D; type: biochemical
# T2 construct: made in house; host or cells: Streptococcus milleri NH5 (culture supernatant)
# T2 sequence (P49331 whole entry): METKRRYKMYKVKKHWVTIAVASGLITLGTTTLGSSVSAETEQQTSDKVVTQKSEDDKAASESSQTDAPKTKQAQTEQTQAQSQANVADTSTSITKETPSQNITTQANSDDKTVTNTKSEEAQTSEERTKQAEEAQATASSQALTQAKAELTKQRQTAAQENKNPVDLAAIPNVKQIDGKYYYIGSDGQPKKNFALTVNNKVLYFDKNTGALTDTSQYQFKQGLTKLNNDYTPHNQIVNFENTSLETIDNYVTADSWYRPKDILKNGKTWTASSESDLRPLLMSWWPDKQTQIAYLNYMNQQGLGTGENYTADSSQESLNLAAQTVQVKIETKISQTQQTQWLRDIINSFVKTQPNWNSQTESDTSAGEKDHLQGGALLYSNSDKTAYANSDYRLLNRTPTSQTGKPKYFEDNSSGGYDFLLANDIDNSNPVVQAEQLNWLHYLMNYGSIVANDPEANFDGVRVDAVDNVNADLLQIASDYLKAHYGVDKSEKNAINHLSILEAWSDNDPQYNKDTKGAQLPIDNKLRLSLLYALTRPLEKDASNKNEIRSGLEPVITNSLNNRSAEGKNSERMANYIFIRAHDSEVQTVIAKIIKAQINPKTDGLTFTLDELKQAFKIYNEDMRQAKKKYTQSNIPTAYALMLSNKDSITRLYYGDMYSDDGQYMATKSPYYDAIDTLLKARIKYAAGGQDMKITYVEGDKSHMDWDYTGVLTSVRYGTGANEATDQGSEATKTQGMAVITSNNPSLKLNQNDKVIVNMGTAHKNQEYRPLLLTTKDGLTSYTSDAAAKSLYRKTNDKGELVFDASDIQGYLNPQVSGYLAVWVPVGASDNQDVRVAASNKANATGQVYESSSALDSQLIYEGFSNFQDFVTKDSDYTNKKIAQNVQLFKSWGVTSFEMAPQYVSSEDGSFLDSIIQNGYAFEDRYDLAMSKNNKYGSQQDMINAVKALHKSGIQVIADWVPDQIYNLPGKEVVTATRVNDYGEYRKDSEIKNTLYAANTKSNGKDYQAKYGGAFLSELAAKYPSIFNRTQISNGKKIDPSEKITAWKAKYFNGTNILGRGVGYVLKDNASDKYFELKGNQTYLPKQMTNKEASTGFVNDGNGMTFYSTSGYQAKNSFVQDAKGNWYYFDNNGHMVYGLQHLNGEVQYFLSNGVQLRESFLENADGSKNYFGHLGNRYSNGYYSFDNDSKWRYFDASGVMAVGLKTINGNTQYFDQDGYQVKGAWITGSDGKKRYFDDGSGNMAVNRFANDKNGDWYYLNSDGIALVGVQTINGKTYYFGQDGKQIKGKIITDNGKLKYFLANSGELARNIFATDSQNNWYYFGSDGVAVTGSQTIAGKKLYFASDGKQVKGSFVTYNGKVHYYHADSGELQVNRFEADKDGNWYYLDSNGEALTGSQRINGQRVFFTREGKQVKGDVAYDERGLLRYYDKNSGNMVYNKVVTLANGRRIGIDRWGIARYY
# Description: as §1
# For surface assays, the GTFs were adsorbed to hydroxyapatite beads coated with clarified whole saliva (free of GTF activity), as detailed elsewhere (Koo et al., 2000c; Schilling and Bowen, 1988, Venkitaraman et al., 1995). The saliva-coated hydroxyapatite (sHA) beads were exposed to sufficient enzyme to saturate the surface as determined experimentally. Following the adsorption of the enzyme, the beads were washed 3 times with buffer to remove the loosely bound material and exposed to 300 μl of the two-fold dilution series of test compounds (or control) for 30 min. at the same concentrations described above. The beads were washed and exposed to 300 μl [^14C-glucose]-sucrose substrate (100.0 mmol/l sucrose, final concentration). The radiolabeled glucan formed was collected and quantified by scintillation counting (Germaine et al., 1974; Venkitaraman et al., 1995). All the solution and surface assays were done in quadruplicate in at least 3 different experiments.
# [5] = target: T2, GTF D; assay: GTF activity in solution, GTF D; type: biochemical; settings: read-out: GTF D sol. % of Inhib.
# Description: as §1
# (§2) For solution assays, purified GTF B, C, D and Ss were mixed with a two-fold dilution series of the test compounds (concentration ranging from 125 to 500 μM) and incubated with [^14C-glucose]-sucrose substrate (0.2 μCi/ml) (200.0 mmol/l sucrose, 40 μmol/l dextran 9000, 0.02% sodium azide in adsorption buffer—50 mM KCl, 1.0 mM KPO4, 1.0 mM CaCl2, 0.1 mM MgCl2−pH=6.5) to reach a final concentration of 100 mmol/l sucrose (200 μl final volume). For the control, the same reaction was carried out, where ethanol:DMSO (final concentration of 7.5% and 1.25%, v/v) or ethanol (final concentration of 5%, v/v) replaced the test agent solutions. The samples were incubated 37° C. with rocking for 4 h. After incubation, ice-cold ethanol (1.0 ml) was added and the samples were stored for 18 h, 4° C. for precipitation of glucans. Radiolabeled glucan was determined by scintillation counting (Germaine et al., 1974; Venkitaraman et al., 1995).
# [6] = target: T3, GTF B (Streptococcus mutans serotype c, UniProt P08987); assay: GTF activity in solution, GTF B; type: biochemical; settings: read-out: GTF B sol. % of Inhib.
# T3 construct: made in house; host or cells: Streptococcus milleri KSB8 (culture supernatant)
# T3 sequence (P08987 35-1476): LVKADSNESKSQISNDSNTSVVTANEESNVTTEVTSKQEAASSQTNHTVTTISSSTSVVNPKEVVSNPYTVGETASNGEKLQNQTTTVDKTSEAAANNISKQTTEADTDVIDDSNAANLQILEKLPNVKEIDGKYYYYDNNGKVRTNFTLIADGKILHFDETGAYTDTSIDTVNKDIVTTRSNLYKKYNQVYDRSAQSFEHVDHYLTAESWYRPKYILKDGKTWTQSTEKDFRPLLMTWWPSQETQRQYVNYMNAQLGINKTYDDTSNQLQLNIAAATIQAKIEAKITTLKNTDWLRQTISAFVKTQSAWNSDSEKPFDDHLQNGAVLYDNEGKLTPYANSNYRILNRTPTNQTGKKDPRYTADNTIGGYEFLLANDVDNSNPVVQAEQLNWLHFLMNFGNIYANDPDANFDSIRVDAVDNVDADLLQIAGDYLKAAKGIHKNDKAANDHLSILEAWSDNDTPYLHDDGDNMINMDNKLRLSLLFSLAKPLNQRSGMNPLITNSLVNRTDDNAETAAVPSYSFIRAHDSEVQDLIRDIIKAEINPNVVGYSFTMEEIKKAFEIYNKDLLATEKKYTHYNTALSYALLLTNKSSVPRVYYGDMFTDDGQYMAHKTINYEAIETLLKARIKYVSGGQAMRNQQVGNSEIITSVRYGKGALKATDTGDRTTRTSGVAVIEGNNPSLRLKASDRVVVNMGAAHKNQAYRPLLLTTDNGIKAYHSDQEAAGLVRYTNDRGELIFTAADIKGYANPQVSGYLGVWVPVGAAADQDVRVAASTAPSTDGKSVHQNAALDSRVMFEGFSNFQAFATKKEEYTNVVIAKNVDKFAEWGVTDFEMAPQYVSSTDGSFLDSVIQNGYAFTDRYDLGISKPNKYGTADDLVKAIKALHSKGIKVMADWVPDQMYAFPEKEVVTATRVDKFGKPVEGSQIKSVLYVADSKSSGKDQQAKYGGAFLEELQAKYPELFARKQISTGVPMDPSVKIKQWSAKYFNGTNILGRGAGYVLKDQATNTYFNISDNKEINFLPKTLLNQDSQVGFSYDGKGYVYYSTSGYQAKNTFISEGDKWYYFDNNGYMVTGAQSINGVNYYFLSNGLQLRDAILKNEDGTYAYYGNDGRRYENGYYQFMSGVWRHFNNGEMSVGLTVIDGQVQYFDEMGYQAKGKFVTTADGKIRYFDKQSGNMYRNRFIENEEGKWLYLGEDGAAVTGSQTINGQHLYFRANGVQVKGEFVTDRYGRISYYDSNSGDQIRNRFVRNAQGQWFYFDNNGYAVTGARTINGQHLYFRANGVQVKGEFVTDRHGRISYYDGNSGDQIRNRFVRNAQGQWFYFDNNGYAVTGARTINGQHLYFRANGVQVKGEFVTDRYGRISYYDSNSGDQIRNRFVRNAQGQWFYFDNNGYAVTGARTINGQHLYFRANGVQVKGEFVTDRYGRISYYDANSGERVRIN
# Description: as §1, §2
# [7] = read-out: GTF D surf. % of Inhib.
smiles,measurement,setting,value
O=c1cc(-c2ccc(O)cc2)oc2cc(O)cc(O)c12 [Apigenin],MIC,[1],> 500 µM
same,inhibition of GTFs on a surface,[2],60-70%
same,formation of biofilms (in words),[3],inhibits formation of biofilms
same,IC50,[4],> 1000 µM
same,inhibition at 125 µM,[4]; [7],17%
same,inhibition at 250 µM,[4]; [7],25.5%
same,inhibition at 500 µM,[4]; [7],33%
same,inhibition at 125 µM,[5],70.8%
same,inhibition at 250 µM,[5],90.2%
same,inhibition at 500 µM,[5],95%
same,inhibition at 125 µM,[6],78.3%
same,inhibition at 250 µM,[6],92.8%
same,inhibition at 500 µM,[6],94.3%
